# Columns and labels:
# [1] = biological target: FLT4 (Homo sapiens, UniProt P35916); conditions: 10 μM
# [2] = biological target: FGFR1 (Homo sapiens, UniProt P11362); conditions: 10 μM
# [3] = biological target: T1, DDR2 (Homo sapiens, UniProt Q16832); conditions: 10 μM
# T1 sequence (Q16832 22-855): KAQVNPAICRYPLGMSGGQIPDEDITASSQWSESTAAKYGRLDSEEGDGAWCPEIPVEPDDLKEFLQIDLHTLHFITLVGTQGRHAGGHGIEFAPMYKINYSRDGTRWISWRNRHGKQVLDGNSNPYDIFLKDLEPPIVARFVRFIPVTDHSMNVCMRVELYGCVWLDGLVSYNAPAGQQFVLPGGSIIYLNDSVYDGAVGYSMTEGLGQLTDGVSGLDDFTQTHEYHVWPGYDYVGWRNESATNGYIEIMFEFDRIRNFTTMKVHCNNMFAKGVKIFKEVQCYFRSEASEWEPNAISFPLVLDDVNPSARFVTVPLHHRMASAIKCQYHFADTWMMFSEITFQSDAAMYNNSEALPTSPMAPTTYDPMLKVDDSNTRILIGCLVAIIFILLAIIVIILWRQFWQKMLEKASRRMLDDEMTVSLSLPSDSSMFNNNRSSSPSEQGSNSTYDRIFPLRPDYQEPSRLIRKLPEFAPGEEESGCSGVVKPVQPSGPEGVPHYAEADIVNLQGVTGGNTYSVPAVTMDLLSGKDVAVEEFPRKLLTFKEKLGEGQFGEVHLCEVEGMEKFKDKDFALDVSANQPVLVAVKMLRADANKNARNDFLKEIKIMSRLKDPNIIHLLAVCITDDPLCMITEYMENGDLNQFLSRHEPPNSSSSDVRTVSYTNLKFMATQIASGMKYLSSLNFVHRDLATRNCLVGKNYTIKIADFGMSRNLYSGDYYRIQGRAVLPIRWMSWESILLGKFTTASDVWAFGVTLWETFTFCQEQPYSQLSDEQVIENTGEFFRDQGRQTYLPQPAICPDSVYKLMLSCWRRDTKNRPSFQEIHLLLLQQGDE
# [4] = biological target: RET(M918T) (Homo sapiens, UniProt P07949, M918T); conditions: 10 μM
# RET(M918T), sequence (P07949 29-1114 M918T): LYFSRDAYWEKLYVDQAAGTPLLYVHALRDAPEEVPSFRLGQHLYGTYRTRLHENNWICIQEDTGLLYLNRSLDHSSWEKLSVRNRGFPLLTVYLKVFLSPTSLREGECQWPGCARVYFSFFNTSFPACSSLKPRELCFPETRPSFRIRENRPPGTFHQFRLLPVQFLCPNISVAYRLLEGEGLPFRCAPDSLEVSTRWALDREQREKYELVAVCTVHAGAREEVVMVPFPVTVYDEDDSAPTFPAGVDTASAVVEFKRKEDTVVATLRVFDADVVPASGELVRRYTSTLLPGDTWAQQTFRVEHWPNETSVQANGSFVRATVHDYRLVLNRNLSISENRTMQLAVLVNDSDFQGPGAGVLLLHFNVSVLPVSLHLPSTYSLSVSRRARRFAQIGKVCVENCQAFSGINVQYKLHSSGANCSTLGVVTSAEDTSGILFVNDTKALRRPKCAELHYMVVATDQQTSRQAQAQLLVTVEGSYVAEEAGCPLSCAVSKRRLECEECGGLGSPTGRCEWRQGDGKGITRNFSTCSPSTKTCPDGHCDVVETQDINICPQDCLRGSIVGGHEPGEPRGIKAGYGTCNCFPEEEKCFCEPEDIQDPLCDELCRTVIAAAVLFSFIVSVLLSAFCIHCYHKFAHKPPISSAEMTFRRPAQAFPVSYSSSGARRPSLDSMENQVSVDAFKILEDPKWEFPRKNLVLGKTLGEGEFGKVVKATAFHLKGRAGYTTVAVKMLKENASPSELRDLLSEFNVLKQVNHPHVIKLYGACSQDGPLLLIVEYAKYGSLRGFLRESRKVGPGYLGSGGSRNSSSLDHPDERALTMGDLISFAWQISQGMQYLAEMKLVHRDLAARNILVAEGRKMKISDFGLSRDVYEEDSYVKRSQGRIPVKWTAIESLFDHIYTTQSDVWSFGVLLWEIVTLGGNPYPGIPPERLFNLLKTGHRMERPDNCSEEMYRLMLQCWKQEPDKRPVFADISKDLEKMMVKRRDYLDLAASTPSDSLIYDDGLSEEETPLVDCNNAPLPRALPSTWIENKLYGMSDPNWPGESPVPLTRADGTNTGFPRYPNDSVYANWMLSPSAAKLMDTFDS
# [5] = biological target: T2, ZAP70 (Homo sapiens, UniProt P43403); conditions: 10 μM
# T2 sequence (P43403 1-619): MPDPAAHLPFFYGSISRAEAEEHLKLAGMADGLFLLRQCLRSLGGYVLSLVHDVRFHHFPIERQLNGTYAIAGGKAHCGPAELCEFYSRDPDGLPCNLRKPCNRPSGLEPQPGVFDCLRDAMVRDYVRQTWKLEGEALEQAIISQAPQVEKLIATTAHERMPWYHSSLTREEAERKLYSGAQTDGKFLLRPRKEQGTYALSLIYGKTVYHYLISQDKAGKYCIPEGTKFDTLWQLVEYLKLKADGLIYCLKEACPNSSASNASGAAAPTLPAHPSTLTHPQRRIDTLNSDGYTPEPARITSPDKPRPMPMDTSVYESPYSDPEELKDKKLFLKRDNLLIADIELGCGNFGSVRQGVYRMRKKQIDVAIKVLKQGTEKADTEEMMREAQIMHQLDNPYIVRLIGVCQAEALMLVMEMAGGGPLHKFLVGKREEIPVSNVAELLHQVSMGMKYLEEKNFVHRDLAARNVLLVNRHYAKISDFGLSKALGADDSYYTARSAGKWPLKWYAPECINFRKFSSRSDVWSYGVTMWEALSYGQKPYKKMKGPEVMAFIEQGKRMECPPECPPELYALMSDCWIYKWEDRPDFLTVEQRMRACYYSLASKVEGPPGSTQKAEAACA
# [6] = biological target: RET(V804TL) (Homo sapiens, UniProt P07949, V804L); conditions: 10 μM
# RET(V804TL), sequence (P07949 29-1114 V804L): as the sequence (P07949 29-1114 M918T) above, with V776L, T890M counted along it
# [7] = biological target: LYN (Homo sapiens, UniProt P07948); conditions: 10 μM
# LYN, sequence (P07948 whole entry): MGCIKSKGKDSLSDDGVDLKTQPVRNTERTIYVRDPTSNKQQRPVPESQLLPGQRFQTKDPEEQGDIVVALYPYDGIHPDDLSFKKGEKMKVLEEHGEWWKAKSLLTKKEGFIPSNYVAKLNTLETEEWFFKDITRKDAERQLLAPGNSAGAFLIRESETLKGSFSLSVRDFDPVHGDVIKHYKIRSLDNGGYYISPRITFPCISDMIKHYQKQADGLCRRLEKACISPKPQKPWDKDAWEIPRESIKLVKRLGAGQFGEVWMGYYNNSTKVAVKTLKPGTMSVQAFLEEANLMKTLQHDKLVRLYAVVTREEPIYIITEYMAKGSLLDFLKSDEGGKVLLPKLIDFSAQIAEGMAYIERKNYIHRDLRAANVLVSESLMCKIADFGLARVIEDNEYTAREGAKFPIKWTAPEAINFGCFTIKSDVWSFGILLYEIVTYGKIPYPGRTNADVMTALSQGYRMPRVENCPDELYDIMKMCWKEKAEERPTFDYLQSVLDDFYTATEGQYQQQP
# [8] = biological target: TRKC (Homo sapiens, UniProt Q16288); conditions: 10 μM
# TRKC, sequence (Q16288 32-839): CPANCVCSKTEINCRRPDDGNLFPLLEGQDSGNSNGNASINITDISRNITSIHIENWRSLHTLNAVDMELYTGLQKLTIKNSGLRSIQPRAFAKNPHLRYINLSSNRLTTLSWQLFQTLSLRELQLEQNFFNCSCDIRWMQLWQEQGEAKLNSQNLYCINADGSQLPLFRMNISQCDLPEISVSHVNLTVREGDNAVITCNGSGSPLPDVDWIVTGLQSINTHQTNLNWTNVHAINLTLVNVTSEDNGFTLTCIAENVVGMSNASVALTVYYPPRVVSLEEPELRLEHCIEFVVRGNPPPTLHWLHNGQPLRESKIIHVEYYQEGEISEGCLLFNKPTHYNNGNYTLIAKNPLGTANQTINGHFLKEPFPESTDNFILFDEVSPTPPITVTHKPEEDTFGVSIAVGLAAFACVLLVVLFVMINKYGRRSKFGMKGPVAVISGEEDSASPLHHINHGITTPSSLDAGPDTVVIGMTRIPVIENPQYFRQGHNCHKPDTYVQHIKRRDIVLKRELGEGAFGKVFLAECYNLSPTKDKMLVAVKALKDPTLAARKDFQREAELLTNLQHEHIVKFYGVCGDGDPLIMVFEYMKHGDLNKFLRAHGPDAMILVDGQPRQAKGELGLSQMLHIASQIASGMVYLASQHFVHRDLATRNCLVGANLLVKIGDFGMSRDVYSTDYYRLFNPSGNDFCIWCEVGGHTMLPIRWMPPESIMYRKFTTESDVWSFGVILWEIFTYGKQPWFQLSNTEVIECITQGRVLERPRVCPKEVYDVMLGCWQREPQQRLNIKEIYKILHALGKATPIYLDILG
# [9] = biological target: T3, DDR1 (Homo sapiens, UniProt Q08345); format: binding; conditions: for Percent control: 10 μM
# T3 construct: purchased DiscoveRx KINOMEscan
# [10] = biological target: T4, EPHB2 (Homo sapiens, UniProt P29323); test: biochemical; conditions: read-out: Percent control
# T4 sequence (P29323 19-1055): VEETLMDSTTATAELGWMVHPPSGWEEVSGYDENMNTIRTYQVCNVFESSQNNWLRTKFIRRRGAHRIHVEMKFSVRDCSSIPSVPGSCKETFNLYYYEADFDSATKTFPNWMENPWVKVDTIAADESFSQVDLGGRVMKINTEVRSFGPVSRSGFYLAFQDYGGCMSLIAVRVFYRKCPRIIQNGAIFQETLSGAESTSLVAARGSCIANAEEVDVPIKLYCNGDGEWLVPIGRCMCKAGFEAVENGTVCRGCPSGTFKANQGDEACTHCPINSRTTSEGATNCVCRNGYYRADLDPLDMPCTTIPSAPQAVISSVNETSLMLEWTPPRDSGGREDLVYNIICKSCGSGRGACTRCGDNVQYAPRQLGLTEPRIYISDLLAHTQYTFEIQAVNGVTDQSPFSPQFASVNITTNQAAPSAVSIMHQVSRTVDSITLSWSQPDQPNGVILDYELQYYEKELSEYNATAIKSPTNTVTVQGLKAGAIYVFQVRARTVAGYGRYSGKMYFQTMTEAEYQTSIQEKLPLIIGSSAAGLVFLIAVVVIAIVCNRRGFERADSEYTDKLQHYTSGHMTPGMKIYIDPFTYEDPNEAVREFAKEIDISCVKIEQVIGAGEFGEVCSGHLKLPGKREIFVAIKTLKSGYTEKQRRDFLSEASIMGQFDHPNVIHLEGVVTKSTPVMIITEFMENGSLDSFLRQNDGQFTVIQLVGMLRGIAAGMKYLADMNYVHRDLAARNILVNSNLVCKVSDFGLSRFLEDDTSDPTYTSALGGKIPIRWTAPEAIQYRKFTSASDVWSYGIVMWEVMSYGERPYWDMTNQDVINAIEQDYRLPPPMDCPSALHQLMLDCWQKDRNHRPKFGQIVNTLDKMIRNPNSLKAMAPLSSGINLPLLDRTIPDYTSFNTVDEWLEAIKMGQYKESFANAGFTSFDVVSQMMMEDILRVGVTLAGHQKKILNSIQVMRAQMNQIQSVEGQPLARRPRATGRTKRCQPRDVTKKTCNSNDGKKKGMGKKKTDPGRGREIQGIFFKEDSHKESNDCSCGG
# [11] = biological target: EPHA5 (Homo sapiens, UniProt P54756); test: biochemical; conditions: read-out: Percent control
# EPHA5, sequence (P54756 25-1037): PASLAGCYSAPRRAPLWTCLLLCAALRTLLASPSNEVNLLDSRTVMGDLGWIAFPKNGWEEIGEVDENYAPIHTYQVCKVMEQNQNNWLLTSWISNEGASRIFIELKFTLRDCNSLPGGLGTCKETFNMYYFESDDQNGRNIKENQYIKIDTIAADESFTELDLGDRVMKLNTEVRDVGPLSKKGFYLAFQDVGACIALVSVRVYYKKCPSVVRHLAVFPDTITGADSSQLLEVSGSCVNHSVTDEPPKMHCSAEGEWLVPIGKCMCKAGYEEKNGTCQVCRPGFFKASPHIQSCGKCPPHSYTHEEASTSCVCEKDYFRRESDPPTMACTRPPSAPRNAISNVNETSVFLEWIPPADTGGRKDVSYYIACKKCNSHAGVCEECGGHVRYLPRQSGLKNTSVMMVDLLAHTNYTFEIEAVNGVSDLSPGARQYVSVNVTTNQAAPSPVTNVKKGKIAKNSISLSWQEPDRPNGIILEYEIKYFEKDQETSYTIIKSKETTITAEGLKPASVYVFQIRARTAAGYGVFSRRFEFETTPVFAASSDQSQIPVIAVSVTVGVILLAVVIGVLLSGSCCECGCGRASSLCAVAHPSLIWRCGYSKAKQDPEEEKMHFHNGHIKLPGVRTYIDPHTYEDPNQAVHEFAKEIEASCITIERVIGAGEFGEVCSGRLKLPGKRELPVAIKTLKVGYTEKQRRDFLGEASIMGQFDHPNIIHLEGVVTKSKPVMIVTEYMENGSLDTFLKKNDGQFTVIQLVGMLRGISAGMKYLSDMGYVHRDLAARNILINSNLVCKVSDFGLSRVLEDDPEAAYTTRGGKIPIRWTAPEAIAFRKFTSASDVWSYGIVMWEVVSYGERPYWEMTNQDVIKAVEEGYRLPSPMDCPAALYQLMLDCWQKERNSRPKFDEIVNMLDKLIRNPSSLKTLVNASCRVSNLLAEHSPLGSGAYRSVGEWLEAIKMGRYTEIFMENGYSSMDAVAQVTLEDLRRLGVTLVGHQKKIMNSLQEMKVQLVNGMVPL
# FLT4, sequence (P35916 25-1363): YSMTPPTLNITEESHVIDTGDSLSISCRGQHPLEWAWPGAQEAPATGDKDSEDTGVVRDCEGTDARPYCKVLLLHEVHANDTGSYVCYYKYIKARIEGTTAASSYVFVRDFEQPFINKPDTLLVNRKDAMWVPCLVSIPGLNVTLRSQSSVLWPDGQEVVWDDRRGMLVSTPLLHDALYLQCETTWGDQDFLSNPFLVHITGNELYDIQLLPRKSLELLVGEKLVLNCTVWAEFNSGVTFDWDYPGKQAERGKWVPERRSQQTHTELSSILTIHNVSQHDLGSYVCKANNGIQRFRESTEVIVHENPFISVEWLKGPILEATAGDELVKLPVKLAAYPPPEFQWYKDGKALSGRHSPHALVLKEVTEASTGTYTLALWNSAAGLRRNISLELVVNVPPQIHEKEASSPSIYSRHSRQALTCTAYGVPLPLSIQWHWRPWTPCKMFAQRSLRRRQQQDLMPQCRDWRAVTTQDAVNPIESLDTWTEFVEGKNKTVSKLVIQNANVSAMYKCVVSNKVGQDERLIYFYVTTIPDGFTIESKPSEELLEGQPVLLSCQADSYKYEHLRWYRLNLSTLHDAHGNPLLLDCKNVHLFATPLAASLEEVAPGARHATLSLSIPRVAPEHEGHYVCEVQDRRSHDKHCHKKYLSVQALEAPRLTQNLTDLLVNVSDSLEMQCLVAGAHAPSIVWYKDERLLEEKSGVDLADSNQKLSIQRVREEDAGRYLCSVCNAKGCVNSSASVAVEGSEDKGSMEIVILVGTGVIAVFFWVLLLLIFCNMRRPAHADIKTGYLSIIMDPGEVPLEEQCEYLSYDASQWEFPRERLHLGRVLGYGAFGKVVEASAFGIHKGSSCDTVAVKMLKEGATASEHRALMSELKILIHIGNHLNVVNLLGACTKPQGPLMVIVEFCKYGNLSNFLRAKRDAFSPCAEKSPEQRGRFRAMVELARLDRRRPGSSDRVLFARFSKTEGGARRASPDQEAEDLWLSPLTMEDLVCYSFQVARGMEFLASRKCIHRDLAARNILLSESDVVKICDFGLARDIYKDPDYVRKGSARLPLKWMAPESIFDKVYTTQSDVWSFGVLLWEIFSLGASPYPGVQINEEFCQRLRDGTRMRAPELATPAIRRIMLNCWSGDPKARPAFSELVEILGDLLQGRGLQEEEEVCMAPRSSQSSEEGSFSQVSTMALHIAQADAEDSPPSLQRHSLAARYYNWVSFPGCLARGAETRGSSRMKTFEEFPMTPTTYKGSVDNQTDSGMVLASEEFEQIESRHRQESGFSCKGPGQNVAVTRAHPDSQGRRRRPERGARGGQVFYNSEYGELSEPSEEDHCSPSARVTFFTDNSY
smiles,measurement,setting,value
"Cc1ccc(NC(=O)c2ccc(CN3CCN(C)CC3)cc2)cc1Nc1nccc(-c2cccnc2)[n+]1[Pt-2]1([Cl])[NH2+]C2CCCCC2[NH2+]1 (centres unmarked) [1b, oxaliplatin-imatinib]",Percent control,[1],99%
same,Percent control,[2],96%
same,Percent control,[3],10%
same,Percent control,[4],88%
same,Percent control,[5],100%
same,Percent control,[6],100%
same,Percent control,[7],67%
same,Percent control,[8],100%
"C#Cc1cccc(Nc2c3cc(OCCOC)c(OCCOC)cc3nc[n+]2[Pt@SP2-2]([NH3+])([NH3+])[Cl])c1 [2a, cisplatin-erlotinib]",Percent control,[1],90%
same,Percent control,[2],77%
same,Percent control,[9],74%
same,Percent control,[3],100%
same,Percent control,[4],61%
same,Percent control,[5],89%
same,Percent control,[6],100%
same,Percent control,[7],69%
same,Percent control,[8],93%
"COc1cc2c(Nc3ccc(Br)cc3F)[n+]([Pt-2]3([Cl])[NH2+]C4CCCCC4[NH2+]3)cnc2cc1OCC1CCN(C)CC1 (centres unmarked) [3b, oxaliplatin-vandetanib]",Percent control,[1],14%
same,Percent control,[9],0.3%
same,Percent control,[3],0.21%
same,Percent control,[5],99%
same,Percent control,[7],21%
same,Percent control,[8],98%
C#Cc1cccc(Nc2ncnc3cc(OCCOC)c(OCCOC)cc23)c1 [Erlotinib],remaining activity at 10 µM,[10],100%
same,remaining activity at 10 µM,[11],6.6%
"Cc1ccc(NC(=O)c2ccc(CN3CCN(C)CC3)cc2)cc1Nc1nccc(-c2cccnc2)n1 [Imatinib, reference compound]",remaining activity at 10 µM,[10],100%
same,Percent control,[1],100%
same,Percent control,[2],100%
same,Percent control,[3],0.1%
same,Percent control,[4],100%
same,remaining activity at 10 µM,[11],100%
same,Percent control,[5],100%
same,Percent control,[6],100%
same,Percent control,[7],74%
same,Percent control,[8],100%
"COc1cc2c(Nc3ccc(Br)cc3F)ncnc2cc1OCC1CCN(C)CC1 [Vandetanib, reference compound]",remaining activity at 10 µM,[10],4.2%
same,remaining binding at 10 µM,[9]; read-out: Percent control,0.1%
same,remaining activity at 10 µM,[11],2.3%

# From PMC4858680, “A platinum-based hybrid drug design approach to circumvent acquired resistance to molecular targeted tyrosine kinase inhibitors” (Scientific Reports, 2016)
